Source: patent US20050004000A1, “Oral absorbed drugs” (priority 2001, published 2005)

Test system: acetylcholine-induced abdominal constriction
Assay: Acetylcholine-induced abdominal constriction in mice (antinociceptive activity)
Type: in vivo
Settings: for activity after SC or PO administration: Fmoc-Ala 25 mg/kg; for activity after SC or PO administration / inhibition of acetylcholine-induced abdominal constriction, dose response (FIG. 3): Met-enkephalin 50 mg/kg; for antinociceptive activity in the mouse: comparable doses; for activity after SC or PO administration / antinociceptive activity in the mouse: SC or PO; for inhibition of acetylcholine-induced abdominal constriction, dose response (FIG. 3): 30 minutes after SC, Fmoc-Met-enkephalin 50 and 25 mg/kg, p<0.05
Source text: The method used in the experiments herein for evaluating the antinociceptive properties of Fmoc-Met-enkephalin is a standard method for evaluating compounds having analgesic activity such as non-steroidal anti-inflammatory agents, opioids, and other analgesics, and consists in administering acetylcholine I.P. to mice, treating the mice with the test compound and evaluating the inhibition of abdominal constriction induced by the acetylcholine.
Thus, 120 healthy CD-1, Swiss derived, albino male mice (obtained from Charles River Breeding Labs, Wilmington, Mass.) were weighed, examined for health and equally distributed into one of the 12 test groups shown in Table 1.
SC administration was carried out with a standard syrine and needle and given in a volume of 10 ml per kg. Oral administration was performed using a standard curved oval gavage needle and given in a volume of 10 ml per kg. Thirty minutes after administration of the appropriate treatment, acetylcholine (5.5 mg/kg) was injected I.P. The mice were then placed in large plastic boxes and observed for the occurrence of a single abdominal constriction (defined as a wave of construction and elongation passing caudally along the abdominal wall, accompanied by a twisting of the trunk and followed by extension of the hind limbs). […] Acetylcholine-induced abdominal constriction was repeated again at approximately 120 minutes after test compound administration.
Observations included gross evaluation of the skin and fur, eyes and mucous membranes, respiratory, circulatory, autonomic and central nervous system, somatomotor activity and behavioral patterns. Particular attention was directed to observation of tremors, convulsions, salivation, diarrhea, sleep and coma. A non-parametric analysis of quantal data (Fisher exact test) was used to determine statistical significance of results.

Row | Compound | # mice abdominal construction (25 mg/kg PO, 30 minutes) | # mice abdominal construction (25 mg/kg PO, 120 minutes) | # mice abdominal construction (25 mg/kg SC, 30 minutes) | # mice abdominal construction (25 mg/kg SC, 120 minutes) | activity after SC or PO administration | antinociceptive activity in the mouse | # mice abdominal construction (50 mg/kg PO, 30 minutes) | % inhibition (50 mg/kg PO, 30 minutes) | # mice abdominal construction (50 mg/kg PO, 120 minutes) | % inhibition (50 mg/kg PO, 120 minutes) | # mice abdominal construction (50 mg/kg SC, 30 minutes) | % inhibition (50 mg/kg SC, 30 minutes) | # mice abdominal construction (50 mg/kg SC, 120 minutes) | inhibition of acetylcholine-induced abdominal constriction, dose response (FIG. 3) | also measured
1 | C[C@H](NC(=O)OCC1c2ccccc2-c2ccccc21)C(=O)O [Fmoc-Ala, reference compound] | 10/10 | 8/10 | 10/10 | 10/10 | not active | neither Met-enkephalin nor Fmoc-Ala is active | – | – | – | – | – | – | – | – | % inhibition (25 mg/kg PO, 120 minutes): 20%
2 | (X1)Tyr-Gly-Gly-Phe-Met [Fmoc-Met-Enk] | 6/10 | 10/10 | 6/10 | 6/10 | – | significant antinociceptive activity | 8/10 | 20% | 6/10 | 40% | 5/10 | 50% | 9/10 | statistically significant | # mice abdominal construction (6.25 mg/kg SC, 30 minutes): 9/10; % inhibition (6.25 mg/kg SC, 30 minutes): 10%; # mice abdominal construction (6.25 mg/kg SC, 120 minutes): 8/10; % inhibition (6.25 mg/kg SC, 120 minutes): 20%; # mice abdominal construction (12.5 mg/kg PO, 30 minutes): 6/10; % inhibition (12.5 mg/kg PO, 30 minutes): 40%; # mice abdominal construction (12.5 mg/kg PO, 120 minutes): 10/10; # mice abdominal construction (12.5 mg/kg SC, 30 minutes): 7/10; % inhibition (12.5 mg/kg SC, 30 minutes): 30%; # mice abdominal construction (12.5 mg/kg SC, 120 minutes): 8/10; % inhibition (12.5 mg/kg SC, 120 minutes): 20%; % inhibition (25 mg/kg PO, 30 minutes): 40%; % inhibition (25 mg/kg SC, 30 minutes): 40%; % inhibition (25 mg/kg SC, 120 minutes): 40%; activity at 120 minutes after drug administration (25 mg/kg SC, 120 minutes): active; % inhibition (50 mg/kg SC, 120 minutes): 10%; inhibition of acetylcholine-induced abdominal constriction (statistical significance) (50 and 25 mg/kg SC and 25 and 12.5 mg/kg PO, 30 minutes): statistically significant inhibition; signs of CNS depression or sedation (mice, during the experimental period): did not show signs of CNS depression or sedation; statistically significant activity compared to Fmoc-Ala (oral administration, any dose, 120 minutes): did not show statistically significant activity; inhibition of acetylcholine-induced abdominal constriction after oral administration (FIG. 4) (orally, 25 and 12.5 mg/kg after 30 minutes and 50 mg/kg after 120 minutes): statistically significant inhibition
3 | Tyr-Gly-Gly-Phe-Met [Met-Enk, reference compound] | – | – | – | – | not active | neither Met-enkephalin nor Fmoc-Ala is active | 9/10 | 10% | 9/10 | 10% | 8/10 | 20% | 10/10 | not significantly active | –
